In patent US9440973B2, “Pyrido[3,4-d]pyrimidine-2,4(1H,3H)-dione derivatives” (Hydra Biosciences, Inc., priority 2014, dated 2016):
pIC50: −log10 of the molar value.

target: T1, TRPC5 channel (Homo sapiens, UniProt Q9UL62); test: High throughput screening assay: Fluo4 cell-based fluorescence Ca2+ influx assay; conditions: HEK293/TREx cells inducibly expressing TRPC5, inhibition of [Ca2+]i rise after high-Ca2+ Ringer (14 mM Ca2+), triplicate, 0.027-20 μM
T1 construct: expressed in transfected cells; host or cells: HEK293/TREx (Invitrogen), tetracycline-induced
T1 sequence (Q9UL62 1-973): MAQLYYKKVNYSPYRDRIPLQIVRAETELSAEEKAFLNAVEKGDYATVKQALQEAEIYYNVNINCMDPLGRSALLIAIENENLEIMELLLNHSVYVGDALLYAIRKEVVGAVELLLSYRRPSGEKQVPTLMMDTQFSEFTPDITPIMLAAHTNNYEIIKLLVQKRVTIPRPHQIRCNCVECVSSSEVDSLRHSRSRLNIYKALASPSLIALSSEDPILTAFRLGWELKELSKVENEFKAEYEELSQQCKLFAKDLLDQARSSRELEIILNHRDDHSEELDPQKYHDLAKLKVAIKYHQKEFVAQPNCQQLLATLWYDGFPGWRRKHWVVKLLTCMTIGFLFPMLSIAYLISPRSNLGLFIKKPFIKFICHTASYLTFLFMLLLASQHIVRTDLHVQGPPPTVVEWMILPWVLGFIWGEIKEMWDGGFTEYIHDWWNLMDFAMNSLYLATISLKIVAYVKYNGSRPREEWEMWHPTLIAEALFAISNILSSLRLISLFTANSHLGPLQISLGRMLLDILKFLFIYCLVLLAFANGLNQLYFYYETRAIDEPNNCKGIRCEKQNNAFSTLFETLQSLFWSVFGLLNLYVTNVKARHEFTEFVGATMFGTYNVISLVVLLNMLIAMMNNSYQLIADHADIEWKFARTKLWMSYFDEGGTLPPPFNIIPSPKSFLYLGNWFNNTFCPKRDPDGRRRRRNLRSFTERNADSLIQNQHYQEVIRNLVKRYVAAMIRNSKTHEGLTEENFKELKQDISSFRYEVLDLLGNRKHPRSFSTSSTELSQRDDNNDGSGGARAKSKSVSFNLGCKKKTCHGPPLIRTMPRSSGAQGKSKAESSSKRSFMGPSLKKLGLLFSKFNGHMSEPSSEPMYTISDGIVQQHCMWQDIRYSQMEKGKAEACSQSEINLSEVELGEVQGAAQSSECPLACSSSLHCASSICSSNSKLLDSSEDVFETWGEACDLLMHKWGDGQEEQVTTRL
From the text: The assay depended on detection of the rise in intracellular Ca2+ concentration ([Ca2+]i) following channel activation in cells inducibly expressing the TRPC5 channel. Ca2+ rise was quantified with the use of fluorescent Ca2+ indicators that were loaded into cells and thereafter indicated the [Ca2+]i Ca2+ influx followed activation of the TRPC5 channel. Compounds inhibiting the [Ca2+]i rise were considered hits for further investigation.
The commercially available HEK293/TREx line (Invitrogen) was stably transfected with a TRPC5 construct and screened by conventional calcium imaging to find clones with TRPC5 expression following stimulation with 1 μg/ml tetracycline. These cells were maintained in the growth medium recommended by the manufacturer supplemented with 100 μg/ml hygromycin to promote retention of the TRPC5 construct. After growing to near confluency, cells were plated at a density of ˜35,000 cells/well in 384 well CellBind plates (Corning) in the presence of 1 μg/ml tetracycline, and allowed to grow for 20-30 hrs. A nearly confluent monolayer resulted. Cells were then loaded with Ca2+ dye: Fura-2/AM or Fluo4/AM was added to the wells to a final concentration of 4 μM or 0.5 μM, respectively, and incubated for 80 min or 60 min, respectively, at room temperature. Supernatant was then removed from the cells by inverting plates with a sharp flick, and 25 μl Hank's Balanced Salt Solution (HBSS; 0.185 g/l D-glucose, 0.9767 g/l MgSO4 (anhydrous), 0.4 g/l KCl, 0.06 g/l KH2PO4 (anhydrous), 0.35 g/l NaHCO3, 8.0 g/l NaCl, and 0.04788 g/l Na2HPO4 (anhydrous); pH 7.4) was then added to each well. Following ˜0.5 hour for recovery from loading, cells were assayed using the Hamamatsu FDSS 6000 system, which permitted illumination alternately at 340 nm and 380 nm for Fura-2 experiments, or at 485 nm for Fluo4 experiments. Frames were acquired at a rate of 0.2 Hz. During the assay, the plates were continuously vortexed, with pipette mixing of wells following addition of each reagent. For the screening assay, 26 μl of a diluted compound stock (at 50 μM) was added to each well for 2 minutes following the collection of a short (4 frame) baseline. 13 μl 62 mM high-Ca2+ Ringer solution (4.17 ml of normal ringer (with 2 mM Ca2+) plus 5.83 ml of isotonic calcium ringer (105 mM Ca2+; in this ringer all sodium has been replaced with calcium)) was then added to each well, achieving a final concentration of 14 mM Ca2+ and 10 μM test compound. Data was collected for ˜3 minutes following addition of high Ca2+ Ringer, where the fluorescent intensity (for Fluo4) and the F340/F380 ratio (for Fura-2) were proportional to the [Ca2+]i Negative controls consisted of HEK293/TREx TRPC5 cells exposed to high Ca2+ solution, but no compound. Positive control conditions consisted of addition of 2-APB, a promiscuous blocker of TRPC5 and other channels, to columns 23 and 24 of the plates, to a final concentration of 200 μM. These controls defined a screening window, and “hits” were defined as those compounds inhibiting the fluorescence response by at least 40%. IC50 values were determined for compounds defined as “hits.” The Fluo4 cell-based fluorescence assay was used to determine the intracellular Ca2+ concentration in the presence of varying drug concentration. Final concentrations of compounds tested were 20 μM, 6.667 μM, 2.222 μM, 0.741 μM, 0.247 μM, 0.082 μM, and 0.027 μM. Compounds were tested in triplicate at all concentrations. Standard software was used to fit IC50 curves. A value of NF was assigned when no IC50 curves could not be fit.
Additionally or alternatively, efficacy can be represented as % inhibition in the presence (of a given concentration of compound) versus the absence of compound or in comparison to a control compound. For example, efficacy can be represented as % inhibition of ion flux in the presence versus the absence of compound.

Row | pIC50 | Compound
1 | 5.37 | CC(C)c1ccccc1-c1cc2c(=O)n(CCCO)c(=O)n(C)c2cn1 [Compound 46, 3-(3-hydroxypropyl)-6-(2-isopropylphenyl)-1-methylpyrido[3,4-d]pyrimidine-2,4(1H,3H)-dione]
2 | 5.38 | CC(C)CCc1c(-c2cccc(Cl)c2)ncc2c1c(=O)n(CCCO)c(=O)n2C [Compound 52, 6-(3-chlorophenyl)-3-(3-hydroxypropyl)-5-isopentyl-1-methylpyrido[3,4-d]pyrimidine-2,4(1H,3H)-dione]
3 | 5.01 | CC(C)CCc1c(-c2ccccc2C(C)C)ncc2c1c(=O)n(CCCO)c(=O)n2C [Compound 50, 3-(3-hydroxypropyl)-5-isopentyl-6-(2-isopropylphenyl)-1-methylpyrido[3,4-d]pyrimidine-2,4(1H,3H)-dione]
4 | 5.05 | Cn1c(=O)n(CCCO)c(=O)c2c(Cc3ccc(Cl)cc3)c(Oc3cccc(Cl)c3)ncc21 [Compound 51, 5-(4-chlorobenzyl)-6-(3-chlorophenoxy)-3-(3-hydroxypropyl)-1-methylpyrido[3,4-d]pyrimidine-2,4(1H,3H)-dione]
5 | 5.63 | CC(C)c1ccccc1-c1ncc2c(c1Cc1ccc(Cl)cc1)c(=O)n(CCCO)c(=O)n2C [Compound 49, 5-(4-chlorobenzyl)-3-(3-hydroxypropyl)-6-(2-isopropylphenyl)-1-methylpyrido[3,4-d]pyrimidine-2,4(1H,3H)-dione]
6 | 5.80 | CC(C)CCc1c(-c2ccc(Cl)cc2)ncc2c1c(=O)n(CCCO)c(=O)n2C [Compound 48, 6-(4-chlorophenyl)-3-(3-hydroxypropyl)-5-isopentyl-1-methylpyrido[3,4-d]pyrimidine-2,4(1H,3H)-dione]
7 | 5.79 | Cn1c(=O)n(CCCO)c(=O)c2c(Cc3ccc(Cl)cc3)c(-c3ccc(Cl)cc3)ncc21 [Compound 47, 5-(4-chlorobenzyl)-6-(4-chlorophenyl)-3-(3-hydroxypropyl)-1-methylpyrido[3,4-d]pyrimidine-2,4(1H,3H)-dione]
8 | 6.71 | Cn1c(=O)n(CCCO)c(=O)c2c(Cc3ccccc3)c(-c3cccc(OC(F)(F)F)c3)ncc21 [Compound 53, 5-benzyl-3-(3-hydroxypropyl)-1-methyl-6-(3-(trifluoromethoxy)phenyl)pyrido[3,4-d]pyrimidine-2,4(1H,3H)-dione]

target: T1, TRPC5 channel; test: Whole-cell patch clamp experiments on TRPC5 current; type: cell-based; conditions: TRPC5-expressing HEK293 TREx cells, current activated by LaCl3, holding potential −40 mV, currents quantified at −80 mV and +80 mV
From the text: Patch clamp experiments permit the detection of currents through the TRPC5 channel in the cell line described above. In normal whole-cell patch clamp recordings, a glass electrode is brought into contact with a single cell and a high-resistance (gigaohm) seal is established with the cell membrane. The membrane is then ruptured to achieve the whole-cell configuration, permitting control of the voltage of the cell membrane and measurement of currents flowing across the membrane using the amplifier attached to the electrode and resulting in the replacement of cytoplasm with the pipette solution. A perfusion system permits control of the extracellular solution, including the addition of blockers and activators of the current. The current can be activated by including 1.4 μM free Ca^2+ in the pipette (intracellular) solution, and 80 μM LaCl3 in the extracellular solution.
TRPC5 cells were induced 20-48 hours, removed from growth plates, and replated at low density (to attain good single-cell physical separation) on glass coverslips for measurement. In some cases, cells were grown in low density overnight on glass coverslips. […] Currents elicited were quantified at −80 mV and +80 mV. The internal solution consisted of 140 mM cesium aspartate, 10 mM HEDTA, 2 mM CaCl2, 2.27 mM MgCl2 and 10 mM HEPES, pH 7.2, with 1,400 nM calculated free Ca^2+. […]

Row | pIC50 | Compound
9 | 7.41 | CC(C)c1ccccc1-c1ncc2c(c1Cc1ccc(Cl)cc1)c(=O)n(CCCO)c(=O)n2C [Compound 49, 5-(4-chlorobenzyl)-3-(3-hydroxypropyl)-6-(2-isopropylphenyl)-1-methylpyrido[3,4-d]pyrimidine-2,4(1H,3H)-dione]
